Assay [1] relates to A549 lung cancer cell line. Put plainly: MTT anti-proliferative assay, lung cancer cell line A549. It is filed as cell-based. The settings on record: Homo sapiens, A549, read-out: IC50 (µM) A549, MTT assay, lung cancer cell line A549; average ± standard deviation of independent triplicates. For orientation: Formazan colour is commonly taken as a measure of viable cells.
In assay [2] the test system is T-47D breast cancer cell line. Put plainly: MTT anti-proliferative assay, breast cancer cell line T-47D. Format: cell-based. As to conditions: Homo sapiens, T47D.

Here are results for two compounds from publication PMC9123247 (Drug Design, Development and Therapy, 2022).

Where two headings read alike, the source gives them in different places.

A word on the IC50: it is the concentration that gives 50% inhibition. On to `C#Cc1cccc(Nc2ncnc3cc(OCCOC)c(OCCOC)cc23)c1` [Erlotinib], for which the IC50 in assay [1] came out at 5.73 ± 0.69 µM; in assay [2] (read-out: IC50 (µM) T-47D, MTT assay, breast cancer cell line T-47D, average ± standard deviation of independent triplicates) it was 8.14 ± 0.97 µM. Take `CN[C@@H]1C[C@H]2O[C@@](C)([C@@H]1OC)n1c3ccccc3c3c4c(c5c6ccccc6n2c5c31)C(=O)NC4` [Staurosporine]: the IC50 in assay [2] (read-out: IC50 (µM) T-47D) turned out to be 6.83 ± 1.03 µM.
